Test results published in PubChem BioAssay (NCI).
Several values for one entry are separate records, joined by “and”; a condition that tells them apart may be missing. Equal values may be shown once.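 These data come from cells grown in 96-well plates and exposed to compound for 48 hours at five concentrations. Here, GI50 denotes the concentration required for 50% inhibition of growth. The concentration for full growth arrest is given as TGI.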

How the values were obtained:
Experiment in all cases: growth of human tumour cells (NCI), 48 h
[1] = system: HL-60(TB) leukemia
[2] = system: KM12 colon
[3] = system: KM20L2 colon
[4] = system: M14 melanoma
[5] = system: SNB-75 CNS
[6] = system: SNB-78 CNS
[7] = system: SW-620 colon
[8] = system: T-47D breast
[9] = system: U251 CNS
[10] = system: UO-31 renal

| Structure (SMILES) | TGI [1] | TGI [2] [µM] | TGI [3] [µM] | TGI [4] [µM] | TGI [5] | TGI [6] [µM] | TGI [7] [µM] | GI50 [8] [µM] | TGI [8] [µM] | TGI [9] [µM] | TGI [10] | GI50 [1] [µM] | GI50 [2] [µM] | GI50 [3] [µM] | GI50 [4] [µM] | GI50 [5] [µM] | GI50 [6] [µM] | GI50 [7] [µM] | GI50 [9] [µM] | GI50 [10] [µM] |
| --- | --- | --- | --- | --- | --- | --- | --- | --- | --- | --- | --- | --- | --- | --- | --- | --- | --- | --- | --- | --- |
| CC1=C(C(=O)Nc2cc(F)c(F)cc2F)C(c2ccc(N(C)C)cc2)C(C(=O)Nc2cc(F)c(F)cc2F)=C(C)N1 | > 61.2 µM | > 75.5 | > 100 | > 100 | 48.1 µM | 65.4 | > 100 | 3.64 | 59.2 | > 100 | > 84.4 µM |  |  |  |  |  |  |  |  |  |
| O=C1/C(=C/c2ccccc2)CN(C(=O)/C=C/c2ccccc2)C/C1=C\c1ccccc1 | 16.4 µM | 12.2 | > 46.2 | 12.8 | 60.5 µM | > 73 | 5.28 |  | 15.1 | 7.37 | 20.6 µM |  |  |  |  |  |  |  |  |  |
| C=CCN=C1NC(=O)C(CC(=O)Nc2ccc([N+](=O)[O-])cc2[N+](=O)[O-])S1 (configuration not stated) | > 100 µM | > 100 | > 100 | > 100 | > 100 µM | > 100 | > 100 |  |  | > 100 | > 100 µM |  |  |  |  |  |  |  |  |  |
| NNC(=S)N/N=C(\c1nc2ccc(Cl)cc2[nH]c1=O)C(O)c1cccc([N+](=O)[O-])c1 (configuration not stated) | > 94.3 µM | > 100 | > 100 | > 88 | > 100 µM | > 100 | 41.9 |  |  | > 100 | > 100 µM |  |  |  |  |  |  |  |  |  |
| CC[P+](C)(C)CC | > 100 µM | > 100 | > 100 | > 100 | > 100 µM | > 100 | > 100 |  |  | > 100 | > 100 µM |  |  |  |  |  |  |  |  |  |
| N/N=C1\C(=O)N(c2ccc(Cl)c(Cl)c2)C(=O)C1C(=O)Nc1ccc(Cl)c(Cl)c1 (configuration not stated) | > 100 µM | > 100 | > 100 | > 100 | > 100 µM | 79.5 | > 100 |  |  | > 100 | 84 µM |  |  |  |  |  |  |  |  |  |
| CC[C@@]1(O)C(=O)OCc2c1cc1n(c2=O)Cc2cc3c(N)c(OC)ccc3nc2-1 | 0.187 µM | 2.24 | 1.8 | 0.339 | 0.265 µM | > 100 | 2.87 |  |  | 0.201 | 0.25 µM | 0.0266 | 0.292 | 0.125 | 0.0403 | 0.0339 | 1.22 | 0.137 | < 0.01 | 0.0547 |
| CC(C)CC1CC2C(=O)N(c3ccccc3)C(=O)C2c2[nH]c3ccccc3c21 (configuration not stated) | > 31.6 µM | > 100 | > 100 | > 100 | 30.6 µM | > 100 | > 100 |  |  | > 65 | 79.9 µM |  |  |  |  |  |  |  |  |  |
| COc1ccc(C)cc1-c1ccc(-c2cc(C)ccc2OC)o1 | > 100 µM | > 100 | > 100 | > 100 | > 100 µM | > 100 | > 100 |  |  | > 100 | > 100 µM |  |  |  |  |  |  |  |  |  |
| CC1(C)CCOC(Sc2ccccc2)C1 (configuration not stated) | 34.4 µM | > 100 | > 100 | > 100 | > 100 µM | > 100 | > 100 |  |  | > 100 | > 100 µM |  |  |  |  |  |  |  |  |  |
| CCOC(=O)N1C/C(=C\c2ccc(N(C)C)cc2)C(=O)/C(=C/c2ccc(N(C)C)cc2)C1 | > 100 µM | > 100 | > 100 | > 100 | > 100 µM | > 100 | > 100 |  |  | > 100 | > 100 µM |  |  |  |  |  |  |  |  |  |
| CN1C=C(C(N)=O)Cc2ccsc21 | > 100 µM | > 100 | > 100 | > 100 | > 100 µM | > 100 | > 100 |  |  | > 100 | > 100 µM |  |  |  |  |  |  |  |  |  |
| CC12CC(Br)(Br)C(=O)C3C1CCCC32 | 9.33 µM | 28.3 | 37.9 | 10.1 | 22.9 µM | 44.8 | 5.22 |  | 6.4 | 25.9 | 15 µM |  |  |  |  |  |  |  |  |  |
| CCCCCCCCCCCCNC(=S)OCCCC | 40.4 µM | > 100 | > 100 | > 100 | > 100 µM | > 100 | > 100 |  |  | > 100 | > 100 µM |  |  |  |  |  |  |  |  |  |
| Cc1ccc(C)c(NC(=O)C(=O)C(C2C(C)CC(=O)C2CC(=O)O)[N+](=O)[O-])c1 (configuration not stated) | > 100 µM | > 100 | > 100 | > 100 | > 100 µM | > 100 | > 100 |  |  | > 100 | > 100 µM |  |  |  |  |  |  |  |  |  |
| O=C(OCc1ccccc1)N1N=NC2C3CC(OCc4ccccc4)(OCc4ccccc4)C(O3)C21 (configuration not stated) | 32.6 µM | > 100 | > 100 | > 100 | 82.4 µM | > 100 | 80.5 |  |  | > 100 | 28.4 µM |  |  |  |  |  |  |  |  |  |
| O=C1C2C3C=CC(C2C(=O)N1CN1CCOCC1)C1C2C(=O)N(CN4CCOCC4)C(=O)C2C31 (configuration not stated) | > 59.5 µM | > 63.4 | 63.1 | > 57.2 | > 73.2 µM | > 100 | > 69.8 |  | > 100 | > 63.2 | > 84.6 µM |  |  |  |  |  |  |  |  |  |
| CCOC(=O)c1ccc(N[C@@H]2c3cc4c(cc3C(c3cc(OC)c(O)c(OC)c3)[C@H]3C(=O)OCC32)OCO4)cc1 (some centres not stated) | 0.282 µM and 0.889 µM | 5.29 | 10.7 | 4.32 | 0.909 µM and 4.98 µM | 66.2 | 28.4 |  |  | 3.27 | 0.982 µM and 3.4 µM | 0.0114 | 0.875 |  | 0.353 | 0.308 |  | 0.536 | 0.203 | 0.394 |
| CC1Nc2ccccc2NC1C=C(C#N)C#N (configuration not stated) | 4.69 µM | 31.9 | 31 | 25.7 | 30.3 µM | 36.4 | 25.1 |  |  | 30.3 | 28.3 µM |  |  |  |  |  |  |  |  |  |
